Laboratory results from ChEMBL document CHEMBL1127155, “Synthesis and antiviral activity of 9-(phosphonoalkylnyloxy)purines: Novel acyclonucleotides” (Bioorg Med Chem Lett, 1993).
In brackets after ≈: the same amount, converted by molar mass.

Experiments:
[1] = tested on: Human alphaherpesvirus 2; assay: Tested for the concentration at which compound showed activity against replication of herpes simplex type-2 (HSV-2); assay type: functional, organism-based
[2] = tested on: Cytomegalovirus; assay: Tested for its effect on replication of cytomegalovirus (CMV) at the dose up to 100 ug/mL; NE: No effect on replication; assay type: functional, organism-based
[3] = tested on: MRC5; assay: Tested for inhibition of DNA synthesis in MRC-5 cells; assay type: functional, cell-based; conditions: Homo sapiens
[4] = tested on: Human alphaherpesvirus 1; assay: Tested for its effect on replication of herpes simplex type-1 (HSV-1) at the dose up to 100 ug/mL; NE: No effect on replication; assay type: functional, organism-based
[5] = tested on: Cytomegalovirus; assay: Tested for its effect on replication of cytomegalovirus (CMV) at the dose up to 100 ug/mL; NE: No effect on replication.; assay type: functional, organism-based
[6] = tested on: Cytomegalovirus; assay: Tested for the concentration at which compound showed activity against its effect on replication of Cytomegalovirus; assay type: functional, organism-based; conditions: Human betaherpesvirus 5
[7] = tested on: Human alphaherpesvirus 3; assay: Tested for the concentration at which compound showed activity against its effect on replication of varicella zoster virus; assay type: functional, organism-based
[8] = tested on: Human alphaherpesvirus 1; assay: Tested for the concentration at which compound showed activity against its effect on replication of herpes simplex type-1 (HSV-1); assay type: functional, organism-based
[9] = tested on: Human alphaherpesvirus 1; assay: Tested for concentration at which cytotoxicity was observed in herpes simplex type-1 (HSV-1); assay type: functional
[10] = tested on: Human alphaherpesvirus 2; assay: Tested for the concentration at which compound showed activity against its effect on replication of herpes simplex type-2 (HSV-2); assay type: functional, organism-based

| Structure (SMILES) | IC50 [1] [µg/mL] | Activity [2] | IC50 [3] [µg/mL] | Activity [4] | Activity [5] | IC50 [6] [µg/mL] | IC50 [7] [µg/mL] | IC50 [8] [µg/mL] | Dose [9] [µg/mL] | IC50 [10] [µg/mL] |
| --- | --- | --- | --- | --- | --- | --- | --- | --- | --- | --- |
| Nc1nc(O)c2ncn(OCC/C(=C/Cl)P(=O)(O)O)c2n1 | 25 (≈ 74.5 µM) | No effect | 17 (≈ 50.6 µM) | No effect | – | – | – | – | – | – |
| Nc1ncnc2c1ncn2OCC#CP(=O)(O)O | 14 (≈ 52 µM) | – | 98 (≈ 364 µM) | No effect | No effect | – | – | – | – | – |
| Nc1nc(O)c2ncn(OCC#CP(=O)(O)O)c2n1 | – | – | 4.2 (≈ 14.7 µM) | – | – | 3.8 (≈ 13.3 µM) | 3.2 (≈ 11.2 µM) | 6.5 (≈ 22.8 µM) | 30 | 3.9 (≈ 13.7 µM) |
